“Also recorded” adds a separate entry of the source.
What was measured:
[1] = system: non-small-cell lung cancer cell line A549; test: MTT assay, human non-small-cell lung cancer cells; assay type: cell-based; conditions: concentrations in the range of 10^−7-10^−5 M or higher, FIGS. 3, 15
Source text: (§1) The anti-cancer activity of some of the compounds described herein have been tested in one type of such in vitro assay, as described in the examples herein, using a microculture assay with 3-(4,5-dimethylthiazol-2-yl)-2,5-diphenyltetrazolium bromide (“MTT”). This assay has an advantage over in vivo assay in that results are obtained within a week as opposed to several months. The assay can be carried out in 96-well microtiter plates. The MTT assay is based on the production of a dark blue formazan product by dehydrogenase in the mitochondria of live tumor cells after exposure to drug for 6 days [M. C. Alley, D. A. Scudiero, A. Monks, M. L. Hursey, M. J. Czerwinski, D. L. Fine, B. J. Abbout, J. G. Mayo, R. H. Shoemaker and M. R. Boyd, Cancer Res., 48, 589, 1988]. Thus, only live cells are stained and can be measured at 595 nm. Anti-cancer activity can be reported as percent of the tumor cell growth in the presence of compound at a defined dose compared to control/vehicle treated tumor cells. The results of some such screening assays are given in Examples 162a and 162b, and in FIGS. 2, 3, and 15-18.
(§2) The following human cancer cell lines were used to detect anti-cancer activity in the compounds of the invention.
The non-small-cell lung cancer cell line A549 was used to detect anti-lung cancer activity
(§3) Cell lines were purchased from American Type Culture Collection (ATCC).
(§4) The cancer cell cultures were grown as recommended by the ATTC manuals. A549 cells and BX-PC-3 were grown in DME Dulbecco's modified Eagle's medium containing 4500 mg/L glucose; 4 mM L-glutamine; 10 U/ml Pen-G; 10 mcg/ml […] and 10% fetal calf serum (FCS). PC-3 and MDA-MB468 cells were grown in RPMI medium 1640 containing 2 mM L-glutamine; 10 U/ml Pen-G; 10 mcg/ml Streptomycin and 10% FCS. Cells were kept at 6% CO2 and 37° C. Cells were seeded on day zero in 96-well format tissue culture plates at suitable densities the day before starting treatment, in the media indicated above.
(§5) On day one, the compounds of the invention were added to the culture media of growing cells, containing 10% FCS. The cell media contained the compounds of the invention at one of six concentrations: […], 5×10^−8, 1×10^−7, 5×10^−7, 1×10^−6, and 1×10^−5M. 0.1% DMSO was used as vehicle control, and never exceeded 0.1% final concentration. On day four the media was removed and replaced with fresh media containing the compounds of the invention and FCS.
(§6) The assay is based on the cleavage of the yellow tetrazolium salt MTT to purple formazan crystals by dehydrogenase activity in active mitochondria. This conversion only occurs in living cells with intact/functional mitochondria.
(§7) On day five 10 μl of 5 mg/ml MTT dye are added to each well containing a cell culture. Cells are incubated for additional 4 hours at 6% CO2 and 37° C. Reaction is then stopped by adding 100 μl/well of a solubilization solution consisting of 10% Sodium Dodecyl Sulfate (SDS) and 10 mM HCl On day 6 the formazan crystals formed are solubilized and the resulting colored solution is quantified using a scanning multiwell spectrophotometer at a wavelength of 595 nm.

[2] = system: pancreatic cancer cell line BX-PC-3; test: MTT assay, human pancreatic cancer cells; assay type: cell-based; conditions: concentrations in the range of 10^−7-10^−5 M or higher, FIGS. 3, 18
Source text: as §1, §2
The pancreatic cancer cell line BX-PC-3 was used to detect anti-pancreatic cancer activity.
as §3, §4, §5, §6, §7

[3] = target: T1, recombinant human enzyme Cdc25A (Homo sapiens, UniProt P30304); test: Cdc25A phosphatase assay (OMFP substrate), inhibition of Cdc25A; assay type: biochemical; conditions: FIG. 1; inhibition calculated as a percentage of the solvent control
T1 construct: purchased Upstate Biotechnology (Lake Placid, N.Y.)
T1 sequence (P30304 1-524): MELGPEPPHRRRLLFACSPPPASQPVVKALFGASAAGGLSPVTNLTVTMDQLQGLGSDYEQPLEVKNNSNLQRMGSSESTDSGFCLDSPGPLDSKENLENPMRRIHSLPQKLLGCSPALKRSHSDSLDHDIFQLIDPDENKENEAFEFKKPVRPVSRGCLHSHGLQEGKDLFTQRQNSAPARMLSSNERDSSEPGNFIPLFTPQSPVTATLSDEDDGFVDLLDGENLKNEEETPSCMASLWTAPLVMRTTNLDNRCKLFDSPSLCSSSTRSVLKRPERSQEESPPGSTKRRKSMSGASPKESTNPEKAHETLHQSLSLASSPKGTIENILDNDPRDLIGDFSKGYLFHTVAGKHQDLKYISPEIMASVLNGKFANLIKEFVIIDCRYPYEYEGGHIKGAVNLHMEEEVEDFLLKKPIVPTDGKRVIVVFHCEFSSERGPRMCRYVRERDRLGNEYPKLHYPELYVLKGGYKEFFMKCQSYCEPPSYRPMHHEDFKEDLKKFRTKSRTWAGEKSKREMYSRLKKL
Procedure: Therefore, one method of […] screening of the compounds for anti-cancer activity is to test the activity of a particular compound for the ability to inhibit Cdc 25-type phosphatases. The results of one such test are shown in Example 161 below, and FIG. 1.
The phosphatase assay was performed in a 96-well microtiter plate using recombinant human enzyme Cdc25A purchased from Upstate Biotechnology (Lake Placid, N.Y.). Stock solutions of the test compounds were prepared in DMSO. Five μl of suitable dilutions of the compounds were added to the assay. The final volume of the assay was 100 μl. Twenty units of Cdc25A were pre-incubated with the test compounds at 37° C. for 10 min in the reaction mixture containing 100 mM Tris-HCl, pH 8.2, 40 mM NaCl, 1 mM DTT and 20% glycerol. The reaction was initiated by addition of the enzyme substrate […] (OMFP; Sigma, St. Louis, Mo.) at a final concentration of 40 μM and incubated at room temperature for 1 hour. This substrate allows fluorometric determination of enzyme activity. OMFP is readily metabolized to the fluorescent O-methylfluorescein by the enzyme Cdc25A, thus the absorbance of each reaction sample was determined at 477 nm using a plate reader (SpectraMax 340, Molecular Devices, Sunnyvale, Calif.). […] Inhibition of Cdc25A activity by test compounds was calculated as a percentage of the solvent control.

[4] = system: prostate cancer cell line PC-3; test: MTT assay, human prostate cancer cells; assay type: cell-based; conditions: concentrations in the range of 10^−7-10^−5 M or higher, FIGS. 2, 16
Source text: as §1, §2
The prostate cancer cell line PC-3 was used to detect […]
as §3, §4, §5, §6, §7

[5] = system: breast cancer cell line MDA-MB468; test: MTT assay, human breast cancer cells; assay type: cell-based; conditions: concentrations in the range of 10^−7-10^−5 M or higher, FIGS. 2, 17
Source text: as §1, §2
The breast cancer cell line MDA-MB468 served to detect anti-breast cancer activity.
as §3, §4, §5, §6, §7

tumor cells (H460) = test: Solid non-small-cell lung cancer tumors in athymic nude mice, intraperitoneal treatment; assay type: in vivo; conditions: H460 s.c. in athymic nude mice, i.p. every other day, compound 81 20mg/kg, FIG. 22
Procedure: (§8) Four to six week-old male athymic nude mice (Harlan) were housed under sterile conditions in a fixed 12-12-hr artificial light-dark cycle, and maintained on a standard rodent diet provided ad libitum. Animals were allowed two days to acclimate in this experimental environment prior to the initiation of the study.
(§9) Groups of animals were injected subcutaneously with tumor cells (H460 or PC3). Prior to the injection, the sterile tumor cells were at a logarithmic growth phase and were washed twice with PBS, counted and resuspended in sterile saline at 5-50 million cells per ml. As soon as solid tumors were discernible, the animals were sorted into treatment groups with equal average tumor volume. Animals were treated every other day intraperitoneally with a final volume of 5 ml/kg. Tumor volume was measured once a week for the duration of the study.
Experiment II: Treatment of solid non-small-cell lung cancer tumors

tumor cells (PC3) = test: Solid prostate cancer tumors in athymic nude mice, intraperitoneal treatment; assay type: in vivo; conditions: PC3 s.c. in athymic nude mice; i.p. every other day; compound 43 20mg/kg, compound 81 20mg/kg and 60mg/kg; FIGS. 20, 21
Procedure: as §8, §9
Experiment I: Treatment of solid prostate cancer tumors
Study 1—Treatment groups(n=6/group):

Compound	melting point [°C]	anticancer cell activity / killing of non-small-cell lung cancer cells [1]	anticancer cell activity / killing of pancreatic cancer cells [2]	selective inhibition of Cdc25 as compared to the dual specificity phosphatase MKP-1 [3]	anticancer cell activity / killing of prostate cancer cells [4]	anticancer cell activity / killing of breast cancer cells [5]	growth of non-small cell lung cancer tumors (tumor cells (H460))	growth of solid human prostate cancer tumors (tumor cells (PC3))
O=C1N=C(N2CCCCC2)S/C1=C\c1cccc(-c2ccc(O)c(C34CC5CC(CC(C5)C3)C4)c2)c1 [Compound 3, 5-[3-(3-Adamantan-1-yl-4-hydroxy-phenyl)benzylidene]-2-piperidin-1-yl-thiazol-4-one]	311 to 312	kill significant percentages of the cells; also recorded: strong anticancer all activity	kill significant percentages of the cells; also recorded: strong anticancer all activity	selective inhibition of Cdc25	kill significant percentages of the cells; also recorded: strong anticancer cell activity	kill significant percentages of the cells; also recorded: strong anticancer cell activity		
O=C1N=C(N2CCCC2)SC1Cc1cccc(-c2cc(F)c(O)c(C34CC5CC(CC(C5)C3)C4)c2)c1 (stereo not shown) [Compound 81]	152 to 154	kill significant percentages of the cells	kill significant percentages of the cells		kill significant percentages of the cells	kill significant percentages of the cells	significantly retarded the growth; also recorded: significantly slowed the growth	significantly retarded the growth; also recorded: significantly slowed the growth

From patent publication US20040097566A1, “2-Substituted thiazolidinone and oxazolidinone derivatives for the inhibition of phosphatases and the treatment of cancer” (priority 2001, published 2004)
